From PubChem BioAssay AID743396 (Broad Institute, 2014)
Activity calls are given as the source filed them.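 The calls were made as follows: active = fitted curve reaches a 40% rise in fluorescent cells at or below the top valid dose; inactive = opposite-direction effect, or the rest.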

Assay: autofluorescent compounds in non-GFP fibroblasts, dose response, artefact control for X-chromosome reactivation project, imaging, mTEFS fibroblasts, cherry-pick (AID 743396);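 also: raw share of Hoechst-counted cells scored GFP positive without control normalization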
Conditions: mTEFS fibroblasts autofluorescence, GFP-channel imaging, 3 days
[1] = at 19.5 µM (top of the series), cells pretreated with 5-aza-dC

Structure (SMILES)	% fluorescent cells increase [1]	further results
COc1cc(/C=C/c2ccc3cccc(O)c3n2)cc(OC)c1OC	0% (inactive)	
O=C(O)c1cccnc1C(=O)N1CCc2c([nH]c3ccccc23)C1C(F)(F)F (configuration not stated)	0.447% (inactive)	
S=C(SSC(=S)N1CCOCC1)N1CCOCC1	0% (inactive)	
C/C(=N\NC(=O)CC1N=C(Cc2ccccc2)NNC1=O)c1ccc(Br)cc1 (configuration not stated)	0.037% (inactive)	
CC(=O)Nc1sc(C)c(C)c1C(=O)OCC(=O)Nc1cc(S(C)(=O)=O)ccc1Cl	0.274% (inactive)	
CC(C)(C)NC(=O)C(c1c[nH]c2ccccc12)N(C(=O)Cn1nnc(-c2ccc(Cl)cc2)n1)c1ccccc1F (configuration not stated)	0.176% (inactive)	
COc1cccc(CNC(=O)c2cc(S(=O)(=O)N3CCCC3)cn2C)c1	0% (inactive)	
O=C(/C=C/Sc1ccc(C(F)(F)F)cn1)c1ccccc1	-0.007% (inactive)	
CN(Cc1cccs1)C(=O)Cc1c[nH]c2ccccc12	0.005% (inactive)	
CCOC(=O)c1ccc(NC(=O)c2ccnn2C)cc1	0% (inactive)	
CCOC(=O)c1c(C)[nH]c(N=Nc2ccc(OC)cc2)c1C	0.028% (inactive)	
COc1ccc(CN(C)Cc2nc(Cc3ccccc3Cl)no2)cc1OC	0.025% (inactive)	
COCCCn1c(N)c(C(=O)Nc2ccccc2)c2nc3ccccc3nc21		% fluorescent cells increase (at 19.5 µM (top of the series)): 0.01% (inactive)
O=C(O)c1ccccc1CSc1nc2ccccc2n1Cc1ccccc1C(=O)O	0.253% (inactive)	
CC1CC(C)CN(C(=O)CSCC(=O)Nc2nc(-c3cccs3)cs2)C1 (configuration not stated)	0% (inactive)	
Brc1cccc(CNCC2CCCO2)c1 (configuration not stated)	0.009% (inactive)	
Cc1nnc(SCc2cc(=O)oc3ccc4ccccc4c23)n1Cc1ccccc1	0% (inactive)	
NC(=S)Nc1ccc(Cl)cc1Cl	0.009% (inactive)	
CC(C)(C)N(Cc1ccccc1)C(=O)COC(=O)c1ccc(N2CCCC2=O)cc1	-0.007% (inactive)	
OC[C@@H]1Nc2ccc(C#Cc3ccccc3)cc2[C@H]2[C@@H]1CCN2Cc1nccs1	0.018% (inactive)	
Cc1cc(C(=O)Nc2ccc(Cl)c(S(=O)(=O)N3CCOCC3)c2)c2ccccc2n1	0.116% (inactive)	

Structure (SMILES)	% fluorescent cells increase [1]	further results
C[C@@H]1CCCCO[C@@H](CN(C)C(=O)Nc2ccc(C(F)(F)F)cc2)[C@@H](C)CN([C@H](C)CO)C(=O)c2cc(NS(=O)(=O)c3ccc(F)cc3)ccc2O1	-0.166% (inactive)	
CC(C)c1cc(C(=O)N/N=C/c2cccnc2)cs1	-0.004% (inactive)	
O=C1CCCC(O)=C1Sc1cc(Cl)c(Cl)cc1Cl	0% (inactive)	
O=C(c1cnccn1)N1CC(=O)N2[C@H](CO)[C@@H](c3ccc(-c4cccc(F)c4)cc3)[C@@H]2C1	-0.166% (inactive)	
Cc1ccc2c(COC(=O)C34CC5CC(CC(C5)C3)C4)cc(=O)oc2c1	0% (inactive)	
CC=Cc1ccc2n(c1=O)C[C@@H]1[C@@H](CO)[C@H](C(=O)NCCCN(C)C)[C@H]2N1C(=O)c1ccccc1F (mixture of isomers)	0.025% (inactive)	
COc1cc(/C=C/c2ccc3cccc(O)c3n2)ccc1O	0% (inactive)	
COc1ccccc1N1CCN(C(=O)CN2C(=O)c3cccc4cccc(c34)C2=O)CC1	0.023% (inactive)	
Cc1ccc2[nH]c(C)c(/C=C/c3cc[n+](C)cc3)c2c1	8.78% (inactive)	
CCNC(=O)C[C@@H]1CC[C@H]2[C@@H](COC[C@@H](O)CN2C(=O)C2CCCC2)O1	0.746% (inactive)	
COc1ccc(C2=C(c3ccccc3)OC(OC)c3cc(F)ccc32)cn1 (configuration not stated)	0.033% (inactive)	
Cc1cc2c(NC(=O)Nc3ccc(C(C)(C)C)cc3)cccc2nn1	0.237% (inactive)	
Nc1nc(Nc2ccc(Cl)cc2)c(NC=O)c(=O)[nH]1	18.8% (inactive)	
COc1ccc(-n2nc(C#N)c(Cl)cc2=O)cc1	-0.006% (inactive)	
CCCOc1ccc(C(=O)Nc2ccc(CN3CCOCC3)cc2)cc1	0% (inactive)	
C[C@@H]1CN([C@H](C)CO)C(=O)c2cc(NS(=O)(=O)c3ccc(F)cc3)ccc2O[C@@H](C)CCCCO[C@@H]1CN(C)Cc1ccc2c(c1)OCO2	0% (inactive)	
C=C(C)c1cccc(C(C)(C)NC(=O)Nc2nnc(C(C)C)s2)c1	0% (inactive)	
CCCNC(=O)N1CC2(CN(S(C)(=O)=O)C2)c2c(n(C)c3cc(OC)ccc23)[C@H]1CO	0.032% (inactive)	
O=C(O)c1ccccc1NS(=O)(=O)c1ccc(N/N=C/c2cccc(O)c2O)c([N+](=O)[O-])c1	12.8% (inactive)	
COc1cccc(CNC(=O)c2ccc(NC(=O)CC3SC(N4CCCC4)=NC3=O)cc2)c1 (configuration not stated)	0% (inactive)	
Nc1ccccc1C#CC(=O)c1ccccc1	0% (inactive)	

Structure (SMILES)	% fluorescent cells increase [1]	further results
COc1ccc(NC(=O)Nc2ccc3c(c2)C(=O)N([C@@H](C)CO)C[C@H](C)[C@@H](CN(C)S(=O)(=O)c2ccc(OC)cc2)O3)cc1	0% (inactive)	
COc1ccc(C(=O)Nc2ccc3oc(-c4cccc(F)c4)nc3c2)cc1OC	-0.003% (inactive)	
Cc1ccc(OCCN2CCN(CC(O)Cn3c4ccccc4c4ccccc43)CC2)cc1 (configuration not stated)	3.56% (inactive)	
C=CCn1c(O)c(C(C)=NCc2ccc3c(c2)OCO3)c(=O)[nH]c1=O		% fluorescent cells increase (at 19.5 µM (top of the series)): 0.135% (inactive)
CCN(CC(=O)Nc1sc2c(c1C#N)CCCC2)CC(=O)NC1CCS(=O)(=O)C1 (configuration not stated)	0.225% (inactive)	
O=[N+]([O-])c1ccc(O)c([N+](=O)[O-])c1		% fluorescent cells increase (at 19.5 µM (top of the series)): 0% (inactive)
O=C(CC1CC1)N1CC(=O)N2[C@@H](CO)[C@H](c3ccc(C#Cc4ccc(F)cc4)cc3)[C@@H]2C1	-0.043% (inactive)	
C=CCN(CC(O)c1cccc([N+](=O)[O-])c1)C(C)CCc1ccccc1 (configuration not stated)	1.4% (inactive)	
CCOC(=O)c1sc(-c2ccc(F)cc2)cc1NC(=O)Nc1ccccc1OC	-0.011% (inactive)	
CCn1c(Cl)c(C=O)s/c1=N\S(=O)(=O)c1ccccc1	0% (inactive)	
CC(C)C(NC(=O)c1ccc(F)cc1)C(=O)NCC1CCCO1 (configuration not stated)	0.01% (inactive)	
Cc1nn2c(NCCCN(C)C)c3c(nc2c1-c1ccccc1)CCCC3	-0.007% (inactive)	
Nc1c(-c2ccccc2)c(CN2CCOCC2)nn1-c1ccc(C(=O)O)cc1	0% (inactive)	
O=C(Nc1ccccc1)N1C[C@@H]2[C@H](c3ccccc31)[C@H](CO)N2C(=O)c1ccccc1F	0.041% (inactive)	
COC(=O)c1cc(C(=O)N2CCN(c3ccccc3OC)CC2)cc([N+](=O)[O-])c1	0% (inactive)	
Cc1ccc(S(=O)(=O)N(C)C[C@H]2OCCCC[C@@H](C)Oc3ccc(NC(=O)Nc4c(C)noc4C)cc3C(=O)N([C@H](C)CO)C[C@@H]2C)cc1	0.012% (inactive)	
COc1cccc(NC(=O)N(C)C[C@@H]2Oc3cc(Br)ccc3S(=O)(=O)N([C@@H](C)CO)C[C@H]2C)c1	0.017% (inactive)	
COc1ccc2c(c1)C(C)=CC(C)(C)N2S(=O)(=O)c1ccc(Br)cc1	0% (inactive)	
Clc1ccc(-c2nc(-c3ccncc3)no2)c(Cl)c1	0% (inactive)	
Brc1ccc(-c2cn3ccccc3n2)cc1	0% (inactive)	
Cc1ccccc1NC(=O)CN1C(=O)S/C(=C\c2ccc(-c3cc(C(=O)O)ccc3C)o2)C1=O	0% (inactive)	

Structure (SMILES)	% fluorescent cells increase [1]	further results
CCOC(=O)Cc1c(C)[nH]n(-c2ccccc2)c1=O	0.015% (inactive)	
Cc1ccc(Cl)cc1NC(=O)CCC(=O)O	-0.002% (inactive)	
CC(=O)N(C)C[C@@H]1Oc2ncc(-c3cccnc3)cc2C(=O)N([C@@H](C)CO)C[C@@H]1C	0.097% (inactive)	
CN(C)CC(=O)N1CC2(C1)[C@@H](c1ccccc1)[C@H](CO)N2C(=O)C1CC1	-0.147% (inactive)	
COc1ccc(NC(=O)Nc2ccc3c(c2)CC(=O)N([C@H](C)CO)C[C@H](C)[C@@H](CN(C)S(=O)(=O)c2ccc(F)cc2)O3)cc1	2.89% (inactive)	
CO[C@@H]1CN(C)C(=O)c2cc(NS(C)(=O)=O)ccc2OC[C@H](C)N(C(=O)C2CCCC2)C[C@H]1C	0.308% (inactive)	
CCOc1ccc(CCN2C(=S)N([C@@H](Cc3ccccc3)CN3CCC[C@@H]3CN3C(=S)NC[C@@H]3CC(C)C)C[C@@H]2Cc2ccccc2)cc1	0.019% (inactive)	
Cn1c(=O)c2[nH]c(-c3ccc(S(=O)(=O)O)cc3)nc2n(C)c1=O	0.085% (inactive)	
CSc1ccc(CNCC2CCCO2)cc1 (configuration not stated)	0.293% (inactive)	
O=C(c1ccccc1Cl)N1CCSCCS1(=O)=O	0% (inactive)	
Cc1ccc(Cn2cc(/C=N/Nc3ccc([N+](=O)[O-])cn3)c3ccccc32)cc1	0.941% (inactive)	
Cc1cccc(CN(C)C[C@@H]2Oc3ncc(C#Cc4ccccc4)cc3C(=O)N([C@H](C)CO)C[C@@H]2C)c1		% fluorescent cells increase (at 21 µM (top of the series), cells pretreated with 5-aza-dC): 0% (inactive)
CC1CN(Cc2c(O)ccc3c2oc(=O)c2ccccc23)CC(C)O1 (configuration not stated)	0.279% (inactive)	
COC(=O)c1ccc(-n2c(C)cc(C(=O)COC(=O)C3=COCCO3)c2C)cc1	-0.007% (inactive)	
NNC(=O)/C(=C\c1ccc(Br)cc1)NC(=O)c1cccs1	0.233% (inactive)	
CC(O)(c1ccccc1)c1nc(-c2ccncc2)cs1 (configuration not stated)	0.38% (inactive)	
Cc1cc(C(=O)NCc2cc(F)cc3c2OCOC3)nn1C	-0.003% (inactive)	
N=c1ccn2c(n1)OC1C(O)C(CO)OC12 (configuration not stated)	-0.006% (inactive)	
CCc1ccc(CCC(=O)Nc2ncc(Cc3ccccc3Cl)s2)o1	-0.007% (inactive)	
